# Source: patent US4514404A, “Process for obtaining complex of 3-methoxy-N-methylmorphinan with 7-theophyllineacetic acid (1:2)” (Prodes, S.A., priority 1982, dated 1985)
# Values joined by “and” are separate entries in the source; they are usually repeats but may differ in a detail not shown here. Identical values can stand only once. “Also recorded” adds a separate entry of the source.
# Assays:
# cough = experiment: antitussive activity: cough induced by sulfuric acid atmosphere (Chen et al. 1960), oral; format: in vivo, guinea pig (male); settings: for inhibition of the cough (individual animal) / number of coughs after administration (individual animal) / inhibition of the cough, average value: one hour after administration; for inhibition of the cough (individual animal) / number of coughs after administration (individual animal): individual animals
# Description: This activity has been compared with the activity of codeine and dextromethorphan by the experimental mode of Chen, J.Y.P. and col. (1960), consisting in exciting guinea pigs subjected to an atmosphere of sulfuric acid to cough.
# There are used guinea pig males having a weight of 300-400 grs which are treated in respective lots, with codeine (40 mg/kg.; n=6), dextromethorphan (40 mg/kg.; n=6), theophane (20 mg/kg.; n=5) and theophane (40 mg/kg.; n=6), wherein "n" signifies the number of animals tested in the respective lots and the other data in the parentheses refers to the dosage amount, e.g. 40 mg/kg. The numbers of occurrences of coughing of each animal before and one hour after the oral administration of the drug are measured.
# In Table I are detailed the results obtained by the experiment, before and after the administration of the drug as well as the percentage of inhibition of the cough.
# cardiovascular system = experiment: cardiovascular activity (technique of Smith, 1961); format: in vivo, guinea pig (male); settings: 0.5 to 10 mg/kg
# Source text: The cardiovascular activity (technique of Smith, 1961) and the neuropharmacological activity (Irwin test) of the theophane product have been studied respectively in guinea pigs and rats (males).
# mouse = experiment: acute toxicity in the mouse (Litchfield and Wilcoxon); format: in vivo
# Source text: (§1) The acute toxicity of theophane has been studied orally and i.p. in the mouse and in the rat. The LD50 and the limits of reliance have been determined by the technique of Litchfield and Wilcoxon. Table III summarizes the values of the obtained LD50, as well as of LD0.
# [1] = system: auxotrophic S.typhimurium strains; experiment: mutagenic effect (Ames); format: cell-based; settings: six dosages in DMSO, presence and absence of metabolic activation
# Source text: The possible mutagenic effect of theophane has been evaluated according to the text described by Ames, B. N. and cols (1975) using auxotrophic S.typhimurium strains for the histidine. The product has been studied at six different dosages, dissolved in DMSO, and in the presence and absence of a system of metabolic activation and in front of positive controls.
# [2] = system: Sprague-Dawley rats and fetuses of the first generation; experiment: fetal and teratogenous toxicity, oral during organogenesis; format: in vivo, rat (Sprague-Dawley); settings: 20, 65 and 130 mg/kg/day oral
# [3] = system: tracheal chain of guinea pigs; experiment: bronchodilatory activity in vitro, tracheal chain of guinea pigs (Castillo and de Beer), histamine as bronchoconstrictor; parameters: species or system guinea pig (male); settings: for time elapsed until obtaining an activity of 50%: 5×10^-4 molar
# Source text: The bronchodilatory activity "in vitro" of the compound of the present invention has been studied, using the method of tracheal chain of guinea pigs, described by J. C. Castillo and E. J. J. de Beer in Pharmacol.Expt. Therap., 90, 104. The trachea of male guinea pigs having a weight of 250-350 grs were extracted; then the rings are sectioned, always endeavoring that the trachea is bathed by the corresponding perfusion liquid and under oxygenation conditions for joining posteriorly the tracheal rings by means of a silk yarn forming the chain giving response to the drugs to be administered. The chain is placed in the bath of organs fixed to the registering arm of a chymograph. The bath is to be maintained at the constant temperature of 37.5° C. and using, as the liquid, the Krebs-Hanselett solution.
# As a bronchoconstrictor drug, there is used histamine at a concentration of 1×10^-5 molar.
# The bronchodilatory activity of theophane and theophylline have been compared, for various dosages, and the results obtained are presented in Table II.
# Wistar rats = experiment: subacute toxicity, repeated oral administration over 1 month; format: in vivo, rat (Wistar); settings: 20, 60 and 120 mg/kg/day oral, both sexes
# Description: The subacute toxicity of theophane has been studied after repeated oral administrations over a period of 1 month in Wistar rats of both sexes. The theophane dosage used was 20 mg/kg/day, 60 mg/kg/day and 120 mg/kg/day. One lot of control animals received only excipient.
# rat = experiment: acute toxicity in the rat (Litchfield and Wilcoxon); format: in vivo
# Source text: as §1
# [4] = 40 mg/kg oral, n=6, codeine p < 0.001, dextromethorphan and theophane p < 0.005
compound,measurement,setting,value
"COc1ccc2c3c1O[C@H]1[C@@H](O)C=C[C@H]4[C@@H](C2)N(C)CC[C@@]341 [Codeine, reference compound]",inhibition of the cough (individual animal),cough; 40 mg/kg oral,71.4% and 100.0% and 81.8%
same,number of coughs after administration (individual animal),cough; 40 mg/kg oral,2 and 0
same,"inhibition of the cough, average value",cough; [4],92.2 ± 12.5%
"COc1ccc2c(c1)[C@]13CCCC[C@@H]1[C@H](C2)N(C)CC3 [Dextromethorphan, reference compound]",inhibition of the cough (individual animal),cough; 40 mg/kg oral,33.3% and 60.0% and 100.0% and 75.0% and 50.0%
same,number of coughs after administration (individual animal),cough; 40 mg/kg oral,4 and 6 and 0 and 1
same,"inhibition of the cough, average value",cough; [4],69.7 ± 27.0%
"COc1ccc2c(c1)[C@@]13CCCC[C@H]1[C@@H](C2)N(C)CC3.Cn1c(=O)c2c(ncn2CC(=O)O)n(C)c1=O.Cn1c(=O)c2c(ncn2CC(=O)O)n(C)c1=O [Theophane, complex of 3-methoxy-N-methylmorphinan with 7-theophyllineacetic acid (1:2)]",effects on the cardiovascular system,cardiovascular system,do not produce effects on the cardiovascular system
same,LD0,mouse; i.p.,102.3 mg/kg
same,LD0,mouse; oral,182.2 mg/kg
same,mutagenic activity,[1],does not have any mutagenic activity
same,reversion increase,[1],No reversion increase could be observed
same,teratogenous effects,[2],does not induce teratogenous effects
same,toxic effects to gestating females and their offspring,[2],does not produce toxic effects to the gestating females and their offspring
same,bronchodilatory activity in vitro compared with theophylline (in words),[3],"bronchodilatory activity ""in vitro"" at lower concentrations than theophylline"
same,bronchodilatory activity,"[3]; 1 × 10^-3 molar, 1000 µM",100%
same,bronchodilatory activity,"[3]; 1 × 10^-4 molar, 100 µM",54.6%
same,bronchodilatory activity,"[3]; 1 × 10^-5 molar, 10 µM",0%
same,bronchodilatory activity,"[3]; 2 × 10^-4 molar, 200 µM",37.5%
same,time elapsed until obtaining an activity of 50%,[3],280 s
same,bronchodilatory activity,"[3]; 5 × 10^-4 molar, 500 µM",85.3%
same,bronchodilatory activity,"[3]; 5 × 10^-5 molar, 50 µM",8.3%
same,inhibition of the cough (individual animal),cough; 20 mg/kg oral,33.3% and 28.57% and 66.6% and 60.0%
same,number of coughs after administration (individual animal),cough; 20 mg/kg oral,4 and 10 and 1 and 2
same,"inhibition of the cough, average value","cough; 20 mg/kg oral, n=5, p < 0.005",44.35 ± 17.5%
same,inhibition of the cough (individual animal),cough; 40 mg/kg oral,60.0% and 72.2% and 30.7% and 100.0%
same,number of coughs after administration (individual animal),cough; 40 mg/kg oral,2 and 5 and 9 and 0 and 4
same,"inhibition of the cough, average value",cough; [4],70.5 ± 26.6%
same,antitussive activity (in words),"cough; oral, 20 and 40 mg/kg, guinea pigs",potent antitussive activity; also recorded: antitussive activity which is significant with regard to its proper control
same,"antitussive activity based on the 3-methoxy-N-methylmorphinan content, compared with dextromethorphan","cough; referring to the weight index, 40 mg/kg",greater antitussive activity
same,"subacute toxicity (mortality, weight, diet consumption, hematic, biochemical, urinary parameters, histopathology)",Wistar rats,null toxicity
same,LD0,rat; i.p.,156.4 mg/kg
same,LD0,rat; oral,204.4 mg/kg
Cn1c(=O)c2[nH]cnc2n(C)c1=O [Theophylline],time elapsed until obtaining an activity of 50%,[3],180 s
same,inhibition at 1000 µM,"[3]; Cavia porcellus, 1 × 10^-3 molar",100%
same,inhibition at 100 µM,"[3]; Cavia porcellus, 1 × 10^-4 molar",10.4%
same,inhibition at 10 µM,"[3]; Cavia porcellus, 1 × 10^-5 molar",0%
same,inhibition at 200 µM,"[3]; Cavia porcellus, 2 × 10^-4 molar",30%
same,inhibition at 20 µM,"[3]; Cavia porcellus, 2 × 10^-5 molar",6.25%
same,inhibition at 500 µM,"[3]; Cavia porcellus, 5 × 10^-4 molar",59.1%
